Data as given in PubChem BioAssay AID1963427 (Molecular Pharmacology Branch, DTP, NCI, 2024).

System: 317291-083-R-J1-PDC complex spheroid growth
Test: Anticancer human tumor 317291-083-R-J1-PDC patient-derived soft tissue sarcoma cell line growth inhibition [Asc]
Details: for IC50: curve of first compound; for viability, T/C: stronger effect = lower value
Procedure, shortened: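 Tumor cells were grown as multicellular spheroids with stromal HUVEC and mesenchymal stem cells and treated singly or in combination. Concentrations fell in half-log steps from the clinical Cmax, or from 10 microM where none was known.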

[1] = second compound 0.00949 µM, first compound 0.00316 µM
[2] = second compound 0.00949 µM, first compound 0.01 µM
[3] = second compound 0.00949 µM, first compound 0.0316 µM
[4] = second compound 0.00949 µM, first compound 0.1 µM
[5] = second compound 0.00949 µM, first compound 0.316 µM
[6] = second compound 0.00949 µM, first compound 1 µM
[7] = second compound 0.03 µM, first compound 0.00316 µM
[8] = second compound 0.03 µM, first compound 0.01 µM
[9] = second compound 0.03 µM, first compound 0.0316 µM
[10] = second compound 0.03 µM, first compound 0.1 µM
[11] = second compound 0.03 µM, first compound 0.316 µM
[12] = second compound 0.03 µM, first compound 1 µM
[13] = second compound 0.0949 µM, first compound 0.00316 µM
[14] = second compound 0.0949 µM, first compound 0.01 µM
[15] = second compound 0.0949 µM, first compound 0.0316 µM
[16] = second compound 0.0949 µM, first compound 0.1 µM
[17] = second compound 0.0949 µM, first compound 0.316 µM
[18] = second compound 0.0949 µM, first compound 1 µM
[19] = second compound 0.3 µM, first compound 0.00316 µM
[20] = second compound 0.3 µM, first compound 0.01 µM
[21] = second compound 0.3 µM, first compound 0.0316 µM
[22] = second compound 0.3 µM, first compound 0.1 µM
[23] = second compound 0.3 µM, first compound 0.316 µM
[24] = second compound 0.3 µM, first compound 1 µM
[25] = second compound 0.949 µM, first compound 0.00316 µM
[26] = second compound 0.949 µM, first compound 0.01 µM
[27] = second compound 0.949 µM, first compound 0.0316 µM
[28] = second compound 0.949 µM, first compound 0.1 µM
[29] = second compound 0.949 µM, first compound 0.316 µM
[30] = second compound 0.949 µM, first compound 1 µM
[31] = second compound 3 µM, first compound 0.00316 µM
[32] = second compound 3 µM, first compound 0.01 µM
[33] = second compound 3 µM, first compound 0.0316 µM
[34] = second compound 3 µM, first compound 0.1 µM
[35] = second compound 3 µM, first compound 0.316 µM
[36] = second compound 3 µM, first compound 1 µM
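Also: compound exposure lasted seven days after spheroids formed for three days.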
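For viability, T/C in this document: 100% = DMSO vehicle control wells.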

CCN1CCN(Cc2ccc(Nc3ncc(F)c(-c4cc(F)c5nc(C)n(C(C)C)c5c4)n3)nc2)CC1 + CCN1C(C(=O)NC23CCC(C(=O)O)(CC2)CC3)C(c2cccc(Cl)c2F)C2(C(=O)Nc3cc(Cl)ccc32)C12CCCCC2
IC50 (second compound 0.00949 µM): > 1000 nM
IC50 (second compound 0.03 µM): > 1000 nM
IC50 (second compound 0.0949 µM): 814 nM
IC50 (second compound 0.3 µM): > 1000 nM
IC50 (second compound 0.949 µM): 837 nM
IC50 (second compound 3 µM): > 1000 nM
viability, T/C [1]: 95%
viability, T/C [2]: 95.8%
viability, T/C [3]: 100%
viability, T/C [4]: 115%
viability, T/C [5]: 91.2%
viability, T/C [6]: 55.4%
viability, T/C [7]: 99.7%
viability, T/C [8]: 101%
viability, T/C [9]: 97.9%
viability, T/C [10]: 103%
viability, T/C [11]: 80.1%
viability, T/C [12]: 53%
viability, T/C [13]: 97.7%
viability, T/C [14]: 89.3%
viability, T/C [15]: 97%
viability, T/C [16]: 112%
viability, T/C [17]: 88.4%
viability, T/C [18]: 41.6%
viability, T/C [19]: 100%
viability, T/C [20]: 93.1%
viability, T/C [21]: 80.6%
viability, T/C [22]: 86.4%
viability, T/C [23]: 68.1%
viability, T/C [24]: 79.6%
viability, T/C [25]: 106%
viability, T/C [26]: 96.7%
viability, T/C [27]: 79.1%
viability, T/C [28]: 91.1%
viability, T/C [29]: 73.1%
viability, T/C [30]: 44.5%
viability, T/C [31]: 77.5%
viability, T/C [32]: 77%
viability, T/C [33]: 78.9%
viability, T/C [34]: 72.2%
viability, T/C [35]: 56.6%
viability, T/C [36]: 60.9%

CNC(C)C(=O)NC1CN(S(=O)(=O)c2cccc(S(=O)(=O)N3CCC4CCC(C(=O)NC(c5ccccc5)c5ccccc5)N4C(=O)C(NC(=O)C(C)NC)C3)c2)CCC2CCC(C(=O)NC(c3ccccc3)c3ccccc3)N2C1=O (centres undefined) + CCN1C(C(=O)NC23CCC(C(=O)O)(CC2)CC3)C(c2cccc(Cl)c2F)C2(C(=O)Nc3cc(Cl)ccc32)C12CCCCC2
IC50 (second compound 0.00949 µM): 253 nM
IC50 (second compound 0.03 µM): 517 nM
IC50 (second compound 0.0949 µM): 313 nM
IC50 (second compound 0.3 µM): 459 nM
IC50 (second compound 0.949 µM): > 1000 nM
IC50 (second compound 3 µM): 75.2 nM
viability, T/C [1]: 96.9%
viability, T/C [2]: 86%
viability, T/C [3]: 71.7%
viability, T/C [4]: 61.3%
viability, T/C [5]: 49.5%
viability, T/C [6]: 32.1%
viability, T/C [7]: 81.3%
viability, T/C [8]: 87.8%
viability, T/C [9]: 72.5%
viability, T/C [10]: 65.2%
viability, T/C [11]: 50.9%
viability, T/C [12]: 47.7%
viability, T/C [13]: 108%
viability, T/C [14]: 101%
viability, T/C [15]: 79.1%
viability, T/C [16]: 67.4%
viability, T/C [17]: 49.1%
viability, T/C [18]: 39.2%
viability, T/C [19]: 98.7%
viability, T/C [20]: 71.4%
viability, T/C [21]: 70.9%
viability, T/C [22]: 68.7%
viability, T/C [23]: 54.5%
viability, T/C [24]: 41.1%
viability, T/C [25]: 90.1%
viability, T/C [26]: 66.4%
viability, T/C [27]: 64.1%
viability, T/C [28]: 62.4%
viability, T/C [29]: 38.9%
viability, T/C [30]: 63.8%
viability, T/C [31]: 64.4%
viability, T/C [32]: 66.1%
viability, T/C [33]: 59%
viability, T/C [34]: 47.7%
viability, T/C [35]: 34.6%
viability, T/C [36]: 35.4%
